Active and inactive are the calls of the source. No stated cut-off is given here; in the data, actives have a measured IC50 and inactives only a lower limit.

For the assay, the target named is Envelope glycoprotein gp160 (Human immunodeficiency virus 1, UniProt Q6QLK5). The experiment in a line: inhibitors of HIV fusion peptide binding, primary screen, biochemical, uHTS, fluorescence dequenching (AID 1986).
Sequence of Envelope glycoprotein gp160 (Q6QLK5 whole entry, the tested form may be a part): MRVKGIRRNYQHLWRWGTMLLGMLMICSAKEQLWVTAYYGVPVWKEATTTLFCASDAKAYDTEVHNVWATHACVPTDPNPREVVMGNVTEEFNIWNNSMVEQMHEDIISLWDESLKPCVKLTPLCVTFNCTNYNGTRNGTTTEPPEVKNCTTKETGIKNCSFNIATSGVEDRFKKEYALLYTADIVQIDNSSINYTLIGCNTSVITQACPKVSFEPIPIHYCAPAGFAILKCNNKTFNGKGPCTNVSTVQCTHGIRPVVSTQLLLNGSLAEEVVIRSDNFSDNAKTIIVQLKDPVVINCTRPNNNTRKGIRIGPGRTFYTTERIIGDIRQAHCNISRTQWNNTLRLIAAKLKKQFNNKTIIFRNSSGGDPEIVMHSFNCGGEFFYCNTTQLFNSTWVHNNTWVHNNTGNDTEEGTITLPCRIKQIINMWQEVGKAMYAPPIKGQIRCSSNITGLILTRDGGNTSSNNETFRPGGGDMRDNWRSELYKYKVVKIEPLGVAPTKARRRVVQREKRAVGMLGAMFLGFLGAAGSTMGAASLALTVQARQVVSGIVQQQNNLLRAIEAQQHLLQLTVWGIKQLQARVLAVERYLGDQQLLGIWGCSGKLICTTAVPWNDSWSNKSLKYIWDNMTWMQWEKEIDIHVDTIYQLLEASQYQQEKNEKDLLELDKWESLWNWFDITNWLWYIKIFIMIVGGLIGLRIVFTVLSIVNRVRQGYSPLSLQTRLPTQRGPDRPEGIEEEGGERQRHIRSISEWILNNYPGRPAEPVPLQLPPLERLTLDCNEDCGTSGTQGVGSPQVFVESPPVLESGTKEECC
Regarding `Cc1c2c(=O)n(-c3nc4ccccc4s3)nc-2cc(O)n1Cc1ccccc1`, the 50% inhibitory concentration (IC50) (in general, the point on the concentration scale where inhibition reaches its midpoint) is 13.8 µM (active). The result for `CC(c1ccccc1)N1C(=O)c2ccc(C(=O)Nc3ccccc3C(=O)O)cc2C1=O` (stereo not drawn) reads 19.3 µM (active). The result for `CCn1nc([N+](=O)[O-])c(C(C#N)c2nc3cc(C(F)(F)F)ccc3s2)c(Cl)c1=O` (stereo not drawn) reads 14.9 µM (active).

Source of the values: ChEMBL document CHEMBL1201862, “PubChem BioAssay data set” (2004).
